Reference: patent publication US20200188465A1, “TREATMENT OF CYTOKINE RELEASE SYNDROME BY DECREASING LEVEL OF PROINFLAMMATORY CYTOKINE” (Gwo Xi Stem Cell Applied Technology Co., Ltd., priority 2018, published 2020)
“Also recorded” adds a separate entry of the source. Read-outs that look alike come from different tables or passages of the source.

Legend:
Type in all cases: cell-based, Human
[1] = test system: IFN-γ; test: IFN-γ release (ELISA) of Jurkat T cells pre-stimulated with PMA plus ionomycin, then drug (Embodiment 1); settings: for IFN-γ/cell viability: Jurkat pretreated PMA + ionomycin; for IFN-γ content in the cells is reduced at least: summary, concentration not given
Protocol: (§1) Human Jurkat T cell line (Clone E6-1, ATCC TIB 152) and THP-1 were used in the embodiments and purchased from Bioresource Collection and Research Centre (BCRC), Taiwan. The cells were maintained in RPMI 1640 medium (Gibco, Carlsbad, Calif., USA) with 2 mM L-glutamine adjusted to contain 1.5 g/L sodium bicarbonate, 4.5 g/L glucose, 10 mM HEPES, 1.0 mM sodium pyruvate, 1% (v/v) penicillin-streptomycin (HyClone, Logan, Utah), and 10% (v/v) fetal bovine serum (FBS; HyClone). The cells were kept in the incubator with 5% CO2 at 37° C. The passages were performed when the cell density didn't allow the cell concentration to exceed 3×10^6 cells/mL.
(§2) Jurkat cells were seeded in 48-well culture plates at a density of 5.0×10^5 cells/mL in culture medium. To promote Interferon gamma (IFN-γ; IFNG) production, the cells were stimulated with or without the combination of PMA and Ionomycin in culture medium. THP-1 cells were treated with or without the LPS that promoted IL6 production.
(§3) The culture supernatants were harvested by centrifugation and stored at −20° C. for cytokine analysis. The concentration of IFN-γ and IL6 were measured by ELISA kit (Invitrogen, Carlsbad, Calif., USA) according to the manufacturer's instructions.
(§4) After 6 and 24 hours, the supernatants were collected for cell viability analysis and cytokine analysis. The concentration of cytokine was measured by Human IFN-γ ELISA kit (Invitrogen) according to the manufacturers.

[2] = test system: Jurkat T cells; test: Cell viability (MTS) of Jurkat T cells pre-stimulated with PMA plus ionomycin, then drug (Embodiment 1)
Protocol: as §1, §2
(§5) The cell viability was determined using MTS reagent (Promega). Assays were performed by adding MTS to each well for 3 hours at 37° C. with 5% CO2. The amount of formazan converted by living cells, and then recording absorbance at 490 nm with a 96-well plate reader.
as §4

[3] = test system: IL6; test: IL6 release (ELISA) of THP-1 cells pre-stimulated with LPS, then drug (Embodiment 2); settings: for IL6/cell viability: THP-1 pretreated LPS; for IL-6 content in the cells is reduced at least: summary, concentration not given
Protocol: HyClone). […] The passages were performed when the cell density didn't allow the cell concentration to exceed 3×10^6 cells/mL. Jurkat cells were seeded in 48-well culture plates at a density of 5.0×10^5 cells/mL in culture medium. To promote Interferon gamma (IFN-γ; IFNG) production, the cells were stimulated with or without the combination of PMA and Ionomycin in culture medium. THP-1 cells were treated with or without the LPS that promoted IL6 production. The culture supernatants were harvested by centrifugation and stored at −20° C. for cytokine analysis. The concentration of IFN-γ and IL6 were measured by ELISA kit (Invitrogen, Carlsbad, Calif., USA) according to the manufacturer's instructions. […] The concentration of cytokine was measured by IL6 ELISA kit (Invitrogen) according to the manufacturers.

[4] = test system: THP-1 cells; test: Cell viability (MTS) of THP-1 cells pre-stimulated with LPS, then drug (Embodiment 2)
[5] = test system: IFN-γ; test: IFN-γ release (ELISA) of Jurkat cells co-treated with PMA, ionomycin and drug (Embodiments 3 and 4); settings: for inhibition at 1 µM / inhibition at 5 µM: Homo sapiens, Jurkat, read-out: IFN-γ/cell viability lower than group 2 (PI alone); for inhibition at 1 µM: group 3 (THZ 1 μM); for inhibition at 5 µM: group 4 (THZ 5 μM); for effect on cytokine induction, in words: co-treatment with PMA + ionomycin
Protocol: as §1, §3
(§6) In the Embodiment, Jurkat cells were seeded in 48-well culture plates at a density of 5.0×10^5 cells/mL indifferent culture medium, and each of the culture medium contains PMA, ionomycin, and THZ in the proportions shown in Table 3 below.
(§7) After 24 and 48 hours, the supernatants were collected for cell viability analysis and cytokine analysis. The concentration of cytokine was measured by Human IFN-γ ELISA kit (Invitrogen) according to the manufacturers.
(§8) In the Embodiment, Jurkat cells were seeded in 48-well culture plates at a density of 5.0×10^5 cells/mL in different culture medium, and each of the culture medium contains PMA, ionomycin, and HH-F3 in the proportions shown in Table 4 below.
(§9) After 24, 30, and 48 hours, the supernatants were collected for cell viability analysis and cytokine analysis. The concentration of cytokine was measured by Human IFN-γ ELISA kit (Invitrogen) according to the manufacturers.

[6] = test system: Jurkat cells; test: Cell viability (MTS) of Jurkat cells co-treated with PMA, ionomycin and drug (Embodiments 3 and 4)
Protocol: as §1, §5, §6, §7, §8, §9

[7] = drug 1 μM, 6 h, IFN-γ normalized with cell viability
[8] = drug 1 μM, 6 h, Jurkat pretreated PMA 0.01 μg/mL + ionomycin 1 μM 24 h
[9] = drug 1 μM, 24 h, Jurkat pretreated PMA + ionomycin
[10] = drug 5 μM, 6 h, Jurkat pretreated PMA + ionomycin
[11] = drug 5 μM, 24 h, Jurkat pretreated PMA + ionomycin
[12] = drug 10 μM, 6 h, Jurkat pretreated PMA + ionomycin
[13] = drug 10 μM, 24 h, Jurkat pretreated PMA + ionomycin
[14] = drug 1 μM, 6 h, IL6 normalized with cell viability
[15] = drug 1 μM, 6 h, THP-1 pretreated LPS 0.1 μg/mL 16 h
[16] = drug 1 μM, 24 h, THP-1 pretreated LPS
[17] = drug 5 μM, 6 h, THP-1 pretreated LPS
[18] = drug 5 μM, 24 h, THP-1 pretreated LPS
[19] = drug 10 μM, 6 h, THP-1 pretreated LPS
[20] = drug 10 μM, 24 h, THP-1 pretreated LPS
[21] = group 3, THZ 1 μM co-treated with PI, 48 hr
[22] = group 4, THZ 5 μM co-treated with PI, 24 hr
[23] = group 4, THZ 5 μM co-treated with PI, 48 hr
[24] = at 24 hours after administering

## O=C(CCCCCCC(=O)Nc1ccccc1)NO [SAHA, Suberoylanilide hydroxamic acid]
[1]; [7]
  IFN-γ/cell viability: 25.5 pg/mL
[1]; drug 1 μM, 24 h
  IFN-γ/cell viability: 33.8 pg/mL
[1]; drug 5 μM, 6 h
  IFN-γ/cell viability: 28.2 pg/mL
[1]; drug 5 μM, 24 h
  IFN-γ/cell viability: 34.0 pg/mL
[1]; drug 10 μM, 6 h
  IFN-γ/cell viability: 28.0 pg/mL
[1]; drug 10 μM, 24 h
  IFN-γ/cell viability: 32.0 pg/mL
[2]; [8]
  Cell Viability (%): 70 ± 9%
[2]; [9]
  Cell Viability (%): 53 ± 5%
[2]; [10]
  Cell Viability (%): 65 ± 7%
[2]; [11]
  Cell Viability (%): 59 ± 2%
[2]; [12]
  Cell Viability (%): 65 ± 2%
[2]; [13]
  Cell Viability (%): 60 ± 6%

## CN1CCN(CCCN2c3ccccc3Sc3ccc(C(F)(F)F)cc32)CC1 [TFP, Trifluoperazine]
[3]; [14]
  IL6/cell viability: 43.9 pg/mL
[3]; drug 1 μM, 24 h
  IL6/cell viability: 42.8 pg/mL
[3]; drug 5 μM, 6 h
  IL6/cell viability: 35.6 pg/mL
[3]; drug 5 μM, 24 h
  IL6/cell viability: 33.9 pg/mL
[3]; drug 10 μM, 6 h
  IL6/cell viability: 32.5 pg/mL
[3]; drug 10 μM, 24 h
  IL6/cell viability: 38.4 pg/mL
[1]; [7]
  IFN-γ/cell viability: 41.8 pg/mL
[1]; drug 1 μM, 24 h
  IFN-γ/cell viability: 39.7 pg/mL
[1]; drug 5 μM, 6 h
  IFN-γ/cell viability: 35.7 pg/mL
[1]; drug 5 μM, 24 h
  IFN-γ/cell viability: 32.5 pg/mL
[1]; drug 10 μM, 6 h
  IFN-γ/cell viability: 40.9 pg/mL
[1]; drug 10 μM, 24 h
  IFN-γ/cell viability: 35.6 pg/mL
[2]; [8]
  Cell Viability (%): 91 ± 2%
[2]; [9]
  Cell Viability (%): 72 ± 5%
[2]; [10]
  Cell Viability (%): 88 ± 9%
[2]; [11]
  Cell Viability (%): 70 ± 4%
[2]; [12]
  Cell Viability (%): 86 ± 4%
[2]; [13]
  Cell Viability (%): 72 ± 7%
[4]; [15]
  Cell Viability (%): 63 ± 6%
[4]; [16]
  Cell Viability (%): 96 ± 9%
[4]; [17]
  Cell Viability (%): 75 ± 4%
[4]; [18]
  Cell Viability (%): 82 ± 9%
[4]; [19]
  Cell Viability (%): 71 ± 8%
[4]; [20]
  Cell Viability (%): 75 ± 8%

## CSc1ccc2c(c1)N(CCC1CCCCN1C)c1ccccc1S2 (stereo not drawn) [THZ, Thioridazine]
[5]; 24 hr
  inhibition at 1 µM: 46.5%
  inhibition at 5 µM: 45.3%
[5]; 48 hr
  inhibition at 1 µM: 18.7%
  inhibition at 5 µM: 1%
[5]
  effect on cytokine induction, in words: significantly attenuated cytokine induction in Jurkat cells
[5]; listed as Thioridazine
  effect on cytokine induction, in words: able to reduce cytokine production
[5]; group 3, THZ 1 μM co-treated with PI, 24 hr
  IFN-γ/cell viability: 34.9 ± 0.5 pg/mL
[5]; [21]
  IFN-γ/cell viability: 32.6 ± 0.6 pg/mL
[5]; [22]
  IFN-γ/cell viability: 35.7 ± 0.2 pg/mL
[5]; [23]
  IFN-γ/cell viability: 39.7 ± 0.6 pg/mL
[3]; 1 μM, after 6 hours, vs LPS alone
  IL-6 content in the cells reduced: 20.7%
[3]; 1 μM, after 24 hours
  IL-6 content in the cells reduced: 39.5%
[3]; 5 μM, after 6 hours
  IL-6 content in the cells reduced: 37.1%
[3]; 5 μM, after 24 hours
  IL-6 content in the cells reduced: 51.8%
[3]; 10 μM, after 6 hours
  IL-6 content in the cells reduced: 45.9%
[3]; 10 μM, after 24 hours
  IL-6 content in the cells reduced: 65.2%
[3]; "at hours after administering" (number not given)
  IL-6 content in the cells is reduced at least: at least 20.7%
[3]; Table 2, 6 hr and 24 hr
  effect on IL-6 content, in words: stronger effects to cells compared to TFP
[3]; [24]
  IL-6 content in the cells is reduced at least: at least 39.5%
[3]; [14]
  IL6/cell viability: 52.9 pg/mL
[3]; drug 1 μM, 24 h
  IL6/cell viability: 41.3 pg/mL
[3]; drug 5 μM, 6 h
  IL6/cell viability: 41.9 pg/mL
[3]; drug 5 μM, 24 h
  IL6/cell viability: 32.9 pg/mL
[3]; drug 10 μM, 6 h
  IL6/cell viability: 36.1 pg/mL
[3]; drug 10 μM, 24 h
  IL6/cell viability: 23.7 pg/mL
[1]; 1 μM, after 6 hours, vs PMA + ionomycin alone
  IFN-γ content in the cells reduced: 18.6%
[1]; 1 μM, after 24 hours
  IFN-γ content in the cells reduced: 28.2%
[1]; 5 μM, after 6 hours
  IFN-γ content in the cells reduced: 23.7%
[1]; 5 μM, after 24 hours
  IFN-γ content in the cells reduced: 57.7%
[1]; 10 μM, after 6 hours
  IFN-γ content in the cells reduced: 36.2%
[1]; 10 μM, after 24 hours
  IFN-γ content in the cells reduced: 52.2%
[1]; Jurkat, PMA + ionomycin, 6 hr and 24 hr
  effect on IFN-γ content, in words: significantly decreased IFN-γ expression; also recorded: stronger effects to cells compared to TFP and SAHA
[1]; at 6 hours after administering
  IFN-γ content in the cells is reduced at least: at least 18.6%
[1]; [24]
  IFN-γ content in the cells is reduced at least: at least 28.2%
[1]; [7]
  IFN-γ/cell viability: 38.4 pg/mL
[1]; drug 1 μM, 24 h
  IFN-γ/cell viability: 24.4 pg/mL
[1]; drug 5 μM, 6 h
  IFN-γ/cell viability: 36.0 pg/mL
[1]; drug 5 μM, 24 h
  IFN-γ/cell viability: 14.4 pg/mL
[1]; drug 10 μM, 6 h
  IFN-γ/cell viability: 30.1 pg/mL
[1]; drug 10 μM, 24 h
  IFN-γ/cell viability: 16.3 pg/mL
[2]; [8]
  Cell Viability (%): 79 ± 5%
[2]; [9]
  Cell Viability (%): 69 ± 6%
[2]; [10]
  Cell Viability (%): 77 ± 2%
[2]; [11]
  Cell Viability (%): 69 ± 4%
[2]; [12]
  Cell Viability (%): 77 ± 2%
[2]; [13]
  Cell Viability (%): 55 ± 3%
[4]; [15]
  Cell Viability (%): 88 ± 7%
[4]; [16]
  Cell Viability (%): 103 ± 1%
[4]; [17]
  Cell Viability (%): 79 ± 5%
[4]; [18]
  Cell Viability (%): 101 ± 8%
[4]; [19]
  Cell Viability (%): 68 ± 4%
[4]; [20]
  Cell Viability (%): 87 ± 5%
[6]; co-treatment with PMA + ionomycin
  effect on cell viability, in words: does not affect cell viability
[6]; [21]
  Cell Viability (%): 71 ± 4%
[6]; group 3, THZ 1 μM co-treated with PMA 0.01 μg/mL + ionomycin 1 μM, 24 hr
  Cell Viability (%): 81 ± 4%
[6]; [22]
  Cell Viability (%): 74 ± 6%
[6]; [23]
  Cell Viability (%): 65 ± 4%
